Data published in patent US9700043B2, “Corrosive ingredient(s)-containing compositions having reduced toxicity and method of obtaining” (S. C. Johnson & Son, Inc., priority 2014, dated 2017).

Tested on: bovine cornea
Test: Bovine cornea opacity and permeability (BCOP) ocular irritation assay
Conditions: mean data, Conc. neat, exposure time 10 minutes
Procedure: Products including one or more ingredients which are corrosive in nature and present in a product at a level which normally cause ocular irritation are modified to have reduced ocular irritation without replacing the corrosive ingredient(s) and without reducing the amount of the corrosive ingredient(s) used in a product. The level of corrosiveness or the hazards of a product is determined under EPA regulations. EPA toxicity testing is based on determining the level of ocular irritation caused by a product. This EPA standard is used herein to evidence the reduced corrosive nature of products of the invention. The test used is the bovine cornea opacity and permeability (BCOP) method which is an Organization for Economic Co-operation and Development (OECD) validated method for assessing ocular irritation and has recently been accepted by the EPA as an alternative to the traditional Draize animal test. The BCOP test method is described in the “OECD Guidelines For The Testing Of Chemicals”, No. 437, adopted Jul. 26, 2013 and entitled “Bovine Corneal Opacity and Permeability Test Method for Identifying i) Chemicals Inducing Serious Eye Damage and ii) Chemicals Not Requiring Classification for Eye Irritation or Serious Eye Damage”. […]
Step 3—Initial Opacity. The cMEM is removed and refilled and the initial opacity is read on an opacitometer. […]
Step 5—Rinsing. Corneas are rinsed thoroughly to remove the test substance and incubated for two (2) hours before a final opacity reading. […]
Formulas of the same ingredients as in Example 4 were also tested with lower or higher amounts of CARBOPOL® EZ-2 with respective adjustments in the water concentration. […] The viscosities of the 0.25% solution was ˜4 cps, of the 0.55% solution ˜10 cps, of the 0.75% solution ˜200 cps, of the 1.0% solution (shown above) ˜8,000 cps, (each of the former being measured by Brookfield LVT, spindle 1, speed 30 rpm) and of the 1.25% solution ˜18,700 cps (being measured by Brookfield LVT, spindle 4, speed 30 rpm). […]

CCO [Ethanol (Control), Ethanol]
OD490 Value (fluorescein permeability): 0.899 | Opacity Value (n=3 corneas per sample): 28.7 | In Vitro Score (EPA: score ≧75 = Category I): 42.2
